According to patent US20070203057A1, “COMPOUNDS AND METHODS FOR MODULATING ADHESION MOLECULE FUNCTION” (ADHEREX TECHNOLOGIES, INC., priority 1998, published 2007):

Tests used:
[1] = target: T1, NCAM (Homo sapiens, UniProt P13591); experiment: Neurite outgrowth over 3T3 cells transfected with NCAM; type: cell-based, rat; settings: 100 μg/ml
T1 construct: expressed in transfected cells; host or cells: 3T3 cells
Protocol: (§1) The ability of different modulating agents to inhibit neurite outgrowth was also evaluated. […] The peptides were tested at different concentrations. Rat neurons were grown for 20 hours on monolayers of either 3T3 cells, or 3T3 cells expressing N-cadherin. The cultures were then fixed, and the mean neurite length was determined by making measurements on at least 150 neurons for each treatment. The results are presented as the percentage inhibition of neurite outgrowth over 3T3 cells expressing N-cadherin.
(§2) To further evaluate the specificity of these peptide modulating agents, inhibition of neurite outgrowth was assessed, at 100 μg/ml, on monolayers of 3T3 cells transfected with various molecules responsible for neurite outgrowth. The results, shown in Table IV, illustrate a high level of specificity for N-cadherin mediated neurite outgrowth.

[2] = target: T2, L1 (Homo sapiens, UniProt P32004); experiment: Neurite outgrowth over 3T3 cells transfected with L1; type: cell-based, rat; settings: 100 μg/ml
T2 construct: expressed in transfected cells; host or cells: 3T3 cells
T2 sequence (P32004 20-1257): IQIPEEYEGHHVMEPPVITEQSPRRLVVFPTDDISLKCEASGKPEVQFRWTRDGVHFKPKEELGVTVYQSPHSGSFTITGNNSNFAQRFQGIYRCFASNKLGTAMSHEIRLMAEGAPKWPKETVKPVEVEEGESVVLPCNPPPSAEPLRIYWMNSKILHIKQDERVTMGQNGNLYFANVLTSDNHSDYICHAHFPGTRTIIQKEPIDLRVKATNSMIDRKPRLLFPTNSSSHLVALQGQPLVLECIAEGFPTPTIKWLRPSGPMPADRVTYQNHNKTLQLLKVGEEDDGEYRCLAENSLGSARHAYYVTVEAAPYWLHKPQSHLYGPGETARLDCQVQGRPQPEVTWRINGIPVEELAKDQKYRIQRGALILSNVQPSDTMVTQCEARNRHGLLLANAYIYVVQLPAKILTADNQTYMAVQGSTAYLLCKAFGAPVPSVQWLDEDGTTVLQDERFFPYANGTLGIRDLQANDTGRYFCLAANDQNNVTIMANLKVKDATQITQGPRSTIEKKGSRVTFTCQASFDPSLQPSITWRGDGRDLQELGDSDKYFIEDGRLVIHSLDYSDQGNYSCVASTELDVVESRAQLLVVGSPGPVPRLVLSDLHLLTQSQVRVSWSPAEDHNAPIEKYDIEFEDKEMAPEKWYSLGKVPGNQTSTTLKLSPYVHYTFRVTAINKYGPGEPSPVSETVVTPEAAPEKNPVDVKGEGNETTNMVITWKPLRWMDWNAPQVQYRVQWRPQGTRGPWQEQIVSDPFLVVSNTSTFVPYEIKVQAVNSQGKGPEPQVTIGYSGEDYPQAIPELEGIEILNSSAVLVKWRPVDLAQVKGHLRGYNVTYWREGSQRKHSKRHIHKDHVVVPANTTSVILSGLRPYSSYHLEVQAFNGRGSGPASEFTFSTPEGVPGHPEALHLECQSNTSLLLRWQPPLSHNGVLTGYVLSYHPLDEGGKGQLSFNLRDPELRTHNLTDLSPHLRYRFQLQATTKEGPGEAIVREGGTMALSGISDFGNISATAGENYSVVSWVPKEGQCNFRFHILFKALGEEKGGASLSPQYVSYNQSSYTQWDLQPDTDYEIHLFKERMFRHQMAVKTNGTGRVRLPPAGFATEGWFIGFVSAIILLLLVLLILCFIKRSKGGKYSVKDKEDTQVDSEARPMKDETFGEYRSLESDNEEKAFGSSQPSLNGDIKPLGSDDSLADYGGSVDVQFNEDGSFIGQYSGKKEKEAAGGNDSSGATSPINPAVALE
Protocol: as §1, §2

[3] = tested on: N-cadherin; experiment: Neurite outgrowth of rat neurons on monolayers of 3T3 cells expressing N-cadherin; type: cell-based; settings: for Percent Inhibition of Neurite Outgrowth on 3T3 Cells Expressing N-cadherin: rat neurons, 20 hours
Protocol: (§3) Neurons were cultured on monolayers of 3T3 cells transfected with cDNA encoding N-cadherin essentially as described by Doherty and Walsh, Curr. Op. Neurobiol. 4:49-55, 1994; Williams et al., Neuron 13:583-594, 1994; Hall et al., Cell Adhesion and Commun. 3:441-450, 1996; Doherty and Walsh, Mol. Cell. Neurosci. 8:99-111, 1994; Safell et al., Neuron 18:231-242, 1997. Briefly, monolayers of control 3T3 fibroblasts and 3T3 fibroblasts that express N-cadherin were established by overnight culture of 80,000 cells in individual wells of an 8-chamber well tissue culture slide. 3000 cerebellar neurons isolated from post-natal day 3 mouse brains were cultured for 18 hours on the various monolayers in control media (SATO/2% FCS), or media supplemented with various concentrations of the test peptide to be evaluated. The cultures were then fixed and stained for GAP43 which specifically binds to the neurons and their neurites. The length of the longest neurite on each GAP43 positive neuron was then measured by computer assisted morphometry. For each data point, measurements were made from 100-160 neurons, and the given values show the mean +/− the standard error of the mean.
as §1
Similar experiments, illustrated in Table III, were performed to evaluate the effect of various cyclic peptide modulating agents derived from EC1 of human N-cadherin on neurite outgrowth.
as §2
Further experiments were performed as described above to assess the activity of peptide modulating agents derived from EC4 of human N-cadherin.

[4] = target: T2, L1; experiment: Neurite outgrowth of mouse cerebellar neurons on monolayers of 3T3 cells expressing L1; type: cell-based; settings: 250 μg/ml; FIG. 6
Protocol: as §3, with “For each data point, measurements were made from 100-160 neurons, and the given values show the mean +/− the standard error of the mean.” left out
(§4) The mean neurite length was further measured for neurons cultured on monolayers of 3T3 cells, 3T3 cells expressing N-cadherin, 3T3 cells expressing NCAM, and 3T3 cells expressing L1 in media containing the linear peptide H-WLKIDPVNGQI-OH (SEQ ID NO:13; designated N-CAD-CHD2) at a concentration of 250 μg/ml. […]

[5] = target: T1, NCAM; experiment: Neurite outgrowth of mouse cerebellar neurons on monolayers of 3T3 cells expressing NCAM; type: cell-based; settings: 250 μg/ml; FIG. 6
Protocol: as §3, with “For each data point, measurements were made from 100-160 neurons, and the given values show the mean +/− the standard error of the mean.” left out
as §4

[6] = tested on: N-cadherin-Fc chimera; experiment: Binding of peptide to flow cell coated with N-cadherin-Fc chimera (human IgG1 control subtracted); settings: 250, 500 or 1000 μg/ml, FIG. 7
Text: As noted above, native HAV-BM sequences, as well as analogues and mimetics thereof, bind to a classical cadherin, preferably within or near an HAV sequence, and modulate a cadherin-mediated response. The ability to bind to a cadherin sequence may generally be evaluated using any binding assay known to those of ordinary skill in the art. For example, a Pharmacia Biosensor machine may be used, as discussed in Jonsson et al., Biotechniques 11:520-27, 1991. A specific example of the technology that measures the interaction of peptides with molecules can be found in Williams et al., J. Biol. Chem. 272:8539-8545, 1997. Real-time BIA (Biomolecular Interaction Analysis) uses the optical phenomenon surface plasmon resonance to monitor biomolecular interactions. […] Binding to the chip is measured in real-time in arbitrary units of resonance (RU). […]
To determine binding, test analytes (e.g., cadherin peptides, such as HAV-containing peptides) may be placed in running buffer and passed simultaneously over test and control flow cells. […] Specific binding to the derivatized sensor chips may be determined automatically by the system by subtraction of […] flow cell responses. […]

[7] = tested on: N-cadherin; experiment: Neurite outgrowth of mouse cerebellar neurons on monolayers of 3T3 cells expressing N-cadherin; type: cell-based
Text: Within a representative neurite outgrowth assay, neurons may be cultured on a monolayer of cells (e.g., 3T3 fibroblasts) that express N-cadherin. […] For example, neurons may be cultured on monolayers of 3T3 cells transfected with cDNA encoding N-cadherin essentially as described by Doherty and Walsh, Curr. Op. Neurobiol. 4:49-55, 1994; Williams et al., Neuron 13:583-594, 1994; Hall et al., Cell Adhesion and Commun. 3:441-450, 1996; Doherty and Walsh, Mol. Cell. Neurosci. 8:99-111, 1994; and Safell et al., Neuron 18:231-242, 1997. Briefly, monolayers of control 3T3 fibroblasts and 3T3 fibroblasts that express N-cadherin may be established by overnight culture of 80,000 cells in individual wells of an 8-chamber well tissue culture slide. […] The length of the longest neurite on each GAP43 positive neuron may be measured by computer assisted morphometry.
Neurons were cultured on monolayers of 3T3 cells transfected with cDNA encoding N-cadherin essentially as described by Doherty and Walsh, Curr. […] 3000 cerebellar neurons isolated from post-natal day 3 mouse brains were cultured for 18 hours on the various monolayers in control media (SATO/2% FCS), or media supplemented with various concentrations of the test peptide to be evaluated. […] The length of the longest neurite on each GAP43 positive neuron was then measured by computer assisted morphometry. […]

[8] = tested on: human ovarian cancer cells (SKOV3); experiment: Disruption of tumor cell adhesion in SKOV3 monolayer cultures; type: cell-based; settings: 1 mg/mL, 24 hours; FIG. 8B
Text: Within certain cell adhesion assays, the addition of a modulating agent to cells that express a cadherin results in disruption of cell adhesion. A “cadherin-expressing cell,” as used herein, may be any type of cell that expresses at least one cadherin on the cell surface at a detectable level, using standard techniques such as immunocytochemical protocols (e.g., Blaschuk and Farookhi, Dev. Biol. 136:564-567, 1989). Cadherin-expressing cells include endothelial, epithelial and/or cancer cells. For example, such cells may be plated under standard conditions that, in the absence of modulating agent, permit cell adhesion. In the presence of modulating agent (e.g., 500 μg/mL), disruption of cell adhesion may be determined visually within 24 hours, by observing retraction of the cells from one another.
Monolayer cultures of human ovarian cancer cells (SKOV3) were grown in the presence and absence of the peptide N-Ac-INPISGQ-NH2 (SEQ ID NO:22).

[9] = tested on: FGFR; experiment: Neurite outgrowth over 3T3 cells transfected with FGFR; type: cell-based, rat; settings: 100 μg/ml
Protocol: as §1, §2

[10] = 3 μg/ml, cyclic peptides, Table III
[11] = 10 μg/ml, cyclic peptides, Table III
[12] = 33 μg/ml, cyclic peptides, Table III
[13] = 100 μg/ml, cyclic peptides, Table III
[14] = 11 μg/ml, EC4-derived peptides, Table V

T1 sequence (P13591 20-858, species assumed): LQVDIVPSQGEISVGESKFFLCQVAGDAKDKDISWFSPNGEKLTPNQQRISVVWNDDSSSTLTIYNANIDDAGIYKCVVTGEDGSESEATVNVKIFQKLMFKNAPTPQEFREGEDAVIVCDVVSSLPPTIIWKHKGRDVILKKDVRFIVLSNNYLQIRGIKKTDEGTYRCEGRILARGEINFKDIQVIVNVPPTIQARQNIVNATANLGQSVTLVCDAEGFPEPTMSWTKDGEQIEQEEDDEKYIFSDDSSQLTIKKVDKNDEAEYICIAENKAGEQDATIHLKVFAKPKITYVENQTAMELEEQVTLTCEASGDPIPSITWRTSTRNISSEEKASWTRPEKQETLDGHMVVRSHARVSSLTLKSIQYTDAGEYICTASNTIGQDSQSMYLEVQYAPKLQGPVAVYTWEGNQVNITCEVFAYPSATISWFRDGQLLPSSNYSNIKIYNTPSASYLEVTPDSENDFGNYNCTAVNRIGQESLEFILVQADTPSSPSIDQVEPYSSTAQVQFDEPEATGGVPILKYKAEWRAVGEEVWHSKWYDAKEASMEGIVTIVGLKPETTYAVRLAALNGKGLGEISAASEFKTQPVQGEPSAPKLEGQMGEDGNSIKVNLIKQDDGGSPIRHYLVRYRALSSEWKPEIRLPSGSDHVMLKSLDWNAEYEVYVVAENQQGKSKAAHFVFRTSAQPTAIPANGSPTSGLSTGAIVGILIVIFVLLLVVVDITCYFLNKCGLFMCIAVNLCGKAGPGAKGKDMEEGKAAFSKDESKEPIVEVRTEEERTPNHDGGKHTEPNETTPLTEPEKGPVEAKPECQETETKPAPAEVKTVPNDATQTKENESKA

## Ac-CINPIC-NH2 (cysteine pairing not given here)
[1]
  Percent Inhibition of Neurite Outgrowth over 3T3 Cells Expressing NCAM: 13.7 ± 7.1%
[2]
  Percent Inhibition of Neurite Outgrowth over 3T3 Cells Expressing L1: 7.8 ± 3.8%
[3]; [10]
  Percent Inhibition of Neurite Outgrowth: 7.5 ± 3.2%
[3]; [11]
  Percent Inhibition of Neurite Outgrowth: 31.5 ± 7.5%
[3]; [12]
  Percent Inhibition of Neurite Outgrowth: 56.2 ± 6.9%
[3]; 100 μg/ml, Table IV
  Percent Inhibition of Neurite Outgrowth over 3T3 Cells Expressing N-cadherin: 94.5 ± 10.5%
[3]; [13]
  Percent Inhibition of Neurite Outgrowth: 94.5 ± 10.5%
[3]; cyclic peptides, Table III
  EC50: 38.2 µM

## Ac-CINPISC-NH2 (cysteine pairing not given here)
[3]; [11]
  Percent Inhibition of Neurite Outgrowth: 21.8 ± 1.2%
[3]; [12]
  Percent Inhibition of Neurite Outgrowth: 39.5 ± 4.3%
[3]; [13]
  Percent Inhibition of Neurite Outgrowth: 73.4 ± 2.2%
[3]; cyclic peptides, Table III
  EC50: 38.1 µM

## H-WLKIDPVNGQI-OH
[4]
  Inhibition of neurite outgrowth on 3T3 cells expressing L1: Only neurite outgrowth on 3T3 cells expressing N-cadherin was inhibited
[5]
  Inhibition of neurite outgrowth on 3T3 cells expressing NCAM: Only neurite outgrowth on 3T3 cells expressing N-cadherin was inhibited
[6]
  Binding to N-cadherin-Fc chimera coated flow cell: association of the peptide to the flow cell coated with the N-cadherin Fc chimera
[7]; 250 μg/ml, FIG. 6
  Inhibition of neurite outgrowth on 3T3 cells expressing N-cadherin: inhibited
[7]; 125 and 250 μg/ml, FIG. 5
  Inhibition of the N-cadherin neurite outgrowth response: fully inhibited

## N-Ac-CIDPVNC-NH2 (also: cyclic, type of ring not given here) [cyclic peptide comprising IDPVN, from EC4 of human N-cadherin]
[3]; [14]
  Percent Inhibition of Neurite Outgrowth: 15.4 ± 8.9%

## N-Ac-CINPC-NH2
[3]; [10]
  Percent Inhibition of Neurite Outgrowth: 17.4 ± 5.7%
[3]; [11]
  Percent Inhibition of Neurite Outgrowth: 51.9 ± 2.5%
[3]; [12]
  Percent Inhibition of Neurite Outgrowth: 71.0 ± 6.5%
[3]; [13]
  Percent Inhibition of Neurite Outgrowth: 98.1 ± 8.2%
[3]; cyclic peptides, Table III
  EC50: 14.3 µM

## N-Ac-IDPVNGQ-NH2 [peptide derived from EC4 of human N-cadherin]
[3]; [14]
  Percent Inhibition of Neurite Outgrowth: 0.6 ± 10.0%

## N-Ac-INAISGQ-NH2 [control peptide with change in a specific amino acid]
[3]; 33 μg/ml
  Percent Inhibition of Neurite Outgrowth on 3T3 Cells Expressing N-cadherin: 12.3 ± 6.2%

## N-Ac-INPISGQ-NH2 [linear peptide derived from EC1 of human N-cadherin]
[8]
  Disruption of SKOV3 cell adhesion (morphology): retract from one another and round-up
[1]
  Percent Inhibition of Neurite Outgrowth over 3T3 Cells Expressing NCAM: 6.2 ± 3.0%
[2]
  Percent Inhibition of Neurite Outgrowth over 3T3 Cells Expressing L1: 0.3 ± 1.8%
[3]; 3 μg/ml
  Percent Inhibition of Neurite Outgrowth on 3T3 Cells Expressing N-cadherin: 19.5 ± 4.3%
[3]; 10 μg/ml
  Percent Inhibition of Neurite Outgrowth on 3T3 Cells Expressing N-cadherin: 47.8 ± 4.1%
[3]; 33 μg/ml
  Percent Inhibition of Neurite Outgrowth on 3T3 Cells Expressing N-cadherin: 73.0 ± 4.6%
[9]
  Percent Inhibition of Neurite Outgrowth over 3T3 Cells Expressing FGFR: 1.9 ± 5.1%
